Earlier results on three compounds are cited in patent publication US8318788B2, “Layered pharmaceutical formulations” (priority 2006, dated 2012).

Molecules are shown by their SMILES.

For data set [1] the following is noted: patients presenting primary obesity.
For data set [2], the system named is carbonic anhydrase.

Take `NS(=O)(=O)Cc1noc2ccccc12` [Zonisamide]: the weight loss result in data set [1] is reported as “significant weight loss”. In addition, the “inhibitory effect on carbonic anhydrase” value in data set [2] was “weak inhibitory effect”.

Regarding `CNCCC(Oc1ccc(C(F)(F)F)cc1)c1ccccc1` (stereo not drawn) [Fluoxetine, N-methyl-3-phenyl-3-[4-(trifluoromethyl)phenoxy]-propan-1-amine], under “in vivo”, the bioavailability result is “approximately 72%” and the physiological half life entry is “about 24 hours”. Also, the plasma protein binding entry (mostly albumin) was “highly bound to plasma proteins”.

Consider `Cc1cc2c(s1)Nc1ccccc1N=C2N1CCN(C)CC1` [Olanzapine, 2-methyl-4-(4-methyl-1-piperazinyl)-10H-thieno[2,3-b][1,5]benzodiazepine], for which, where the note is “in vivo”, the “effect of food on bioavailability” value was “not affected by food”, the first pass metabolism result is recorded as “extensive first pass metabolism”, the kinetics entry was “linear kinetics” and the “time until steady state plasma concentrations are achieved” value is listed as “about a week”.
